Measured values reported in the Biogen ADME set (Fang et al. 2023).
In brackets after ≈: the same amount, converted by molar mass.

Details: for aqueous solubility: pH 6.8

SMILES	MDR1-MDCK efflux ratio	intrinsic clearance, human liver microsomes	intrinsic clearance, rat liver microsomes	aqueous solubility	fraction unbound, human plasma	fraction unbound, rat plasma
CN(CC#N)C(=O)c1cccc(CN2CCCC2)c1	2.59	≤ 4.74 mL/min/kg	322 mL/min/kg	34.9 µg/mL (≈ 136 µM)	–	–
N#Cc1ccnc(Nc2cc(C3CCN(C4COC4)CC3)cc(N3CCC(F)(F)C3)n2)c1	1.85	–	–	0.71 µg/mL (≈ 1.61 µM)	–	–
COc1cc2cc(N)c(C3CCN(C(=O)C(C)(C)C)CC3)nc2cc1OC	5.8	7.04 mL/min/kg	43.5 mL/min/kg	53 µg/mL (≈ 143 µM)	–	–
CN(CCC#N)Cc1cc(C#N)ccc1F	–	≤ 4.74 mL/min/kg	≤ 10.7 mL/min/kg	31.4 µg/mL (≈ 145 µM)	–	–
O=C(Nc1ccn(Cc2ccc(O)cc2C(F)(F)F)n1)c1c(F)cccc1F	2.23	16.7 mL/min/kg	438 mL/min/kg	43.5 µg/mL (≈ 109 µM)	–	–
CCc1ccc(NC(=O)C2CCN(c3ccc4nncn4n3)CC2)cc1	13.6	4.86 mL/min/kg	34.6 mL/min/kg	1.15 µg/mL (≈ 3.28 µM)	–	–
Cc1nc(N(C)C)nc(C)c1NC(=O)C1CCCCC1	0.656	6.25 mL/min/kg	75.4 mL/min/kg	49.3 µg/mL (≈ 179 µM)	–	–
Cc1nccc(C2(C)CCN(CC(N)=O)CC2)n1	2.82	≤ 4.74 mL/min/kg	≤ 10.7 mL/min/kg	59.8 µg/mL (≈ 241 µM)	–	–
N#Cc1c(Cl)nc(N)n1-c1ccccc1	–	11.7 mL/min/kg	27.7 mL/min/kg	–	–	–
Cc1cc(C)n(C(=O)CCCC(=O)n2nc(C)cc2C)n1	–	609 mL/min/kg	2340 mL/min/kg	–	–	–
COc1cc2c(cc1OC)CN(C(=O)C1CCCN(C(C)=O)C1)CC2 (stereo not drawn)	57.1	≤ 4.74 mL/min/kg	19.9 mL/min/kg	55 µg/mL (≈ 159 µM)	–	–
CC(C)NC(=O)C1(Cc2ccccc2-c2ccncc2)CCOCC1	51.7	269 mL/min/kg	981 mL/min/kg	–	–	–
COc1ccc(-c2noc([C@@H]3CCCN3Cc3cccnc3)n2)cn1	0.759	98 mL/min/kg	1240 mL/min/kg	26.2 µg/mL (≈ 77.7 µM)	–	–
Nc1ccc(Oc2ccccc2F)nc1	0.53	≤ 4.74 mL/min/kg	26.2 mL/min/kg	25.6 µg/mL (≈ 125 µM)	–	–
COc1cccc(Cn2cnc3c(c2=O)COCC3)c1Cl	0.9	5.71 mL/min/kg	138 mL/min/kg	–	–	–
CCc1ccc(-c2nccn2Cc2c(C)nn(CC)c2C)o1	3.28	246 mL/min/kg	3020 mL/min/kg	40.5 µg/mL (≈ 136 µM)	–	–
Clc1ccc(Cc2nc(-c3ccccc3)n[nH]2)cn1	1.52	40.9 mL/min/kg	66.8 mL/min/kg	20.1 µg/mL (≈ 74.2 µM)	–	–
Cc1ccc(-c2cnn3c(O)cc(Cn4cccn4)nc23)cc1	2.46	18.3 mL/min/kg	225 mL/min/kg	–	–	–
CS(=O)(=O)N1CCC(Nc2ccc3ccc(F)cc3n2)CC1	–	5.9 mL/min/kg	98 mL/min/kg	52.8 µg/mL (≈ 163 µM)	–	–
CS(=O)(=O)c1ccc(-c2nnc(/C=C/c3nnc(-c4ccc(C#N)cc4)o3)n2-c2ccccc2Cl)nc1	38.3	–	–	0.9 µg/mL (≈ 1.7 µM)	–	–

SMILES	MDR1-MDCK efflux ratio	intrinsic clearance, human liver microsomes	intrinsic clearance, rat liver microsomes	aqueous solubility	fraction unbound, human plasma	fraction unbound, rat plasma
O=c1c2cccc(C(F)(F)F)c2ncn1C1CCCC1	0.528	115 mL/min/kg	317 mL/min/kg	–	–	–
Cc1cccc(/C=N/Nc2cc(N3CCOCC3)n3nc(-c4ccncc4)cc3n2)c1	–	32.1 mL/min/kg	–	–	–	–
CC(=O)Nc1ncc(CN2CCCC[C@@H]2C)s1	1.31	≤ 4.74 mL/min/kg	14.1 mL/min/kg	–	1	0.838
O=C(CCCNC(=O)NC1CCCCC1)Nc1cc(C2CC2)n[nH]1	–	–	–	43.9 µg/mL (≈ 132 µM)	–	–
Cc1cc(CN(C)Cc2cscn2)no1	0.537	≤ 4.74 mL/min/kg	24.9 mL/min/kg	28.6 µg/mL (≈ 128 µM)	–	–
c1nn(C2CCOCC2)cc1Nc1ncc2nnn(-c3ccc4cn[nH]c4c3)c2n1	531	96.8 mL/min/kg	765 mL/min/kg	–	–	–
COc1ccc(-c2nc(CC(N)=O)sc2C)cc1.Cl	0.246	166 mL/min/kg	111 mL/min/kg	30.3 µg/mL	–	–
Cc1nc(COc2ccc(F)cc2)sc1C(=O)N1CCC(C)CC1	0.543	90.2 mL/min/kg	2510 mL/min/kg	47.4 µg/mL (≈ 136 µM)	–	–
Cc1nc(-c2ccccc2)c(C(=O)Nc2ccc(Cl)c(C(F)(F)F)c2)s1	0.723	–	–	0.42 µg/mL (≈ 1.06 µM)	–	–
CC(C)(C)c1nc(Cn2nnc3ccccc3c2=O)no1	0.68	≤ 4.74 mL/min/kg	119 mL/min/kg	34.7 µg/mL (≈ 122 µM)	–	–
Cc1ccc(-c2ccccc2-c2nc3c(cnn3C3CCN(C)CC3)[nH]2)o1	40.1	≤ 4.74 mL/min/kg	100 mL/min/kg	40.5 µg/mL (≈ 112 µM)	–	–
O=c1[nH]c2ccccc2n1C1CCN(c2ncnc3sccc23)CC1	–	35 mL/min/kg	339 mL/min/kg	4.25 µg/mL (≈ 12.1 µM)	–	–
CC1(C)CN(CC(=O)NCC#N)c2cccc(Cl)c21	0.597	21.2 mL/min/kg	444 mL/min/kg	28.5 µg/mL (≈ 103 µM)	–	–
C[C@@]12CCCN1C(=O)[C@H](C1CCCCC1)NC2=O	2.65	≤ 4.74 mL/min/kg	20.8 mL/min/kg	–	–	–
O=C(COCC1CC1)N1CCCc2ncccc21	0.825	13.8 mL/min/kg	68 mL/min/kg	33.9 µg/mL (≈ 138 µM)	–	–
O=C(Nc1cccc2cnccc12)c1cccc(F)c1	–	34.9 mL/min/kg	132 mL/min/kg	47.6 µg/mL (≈ 179 µM)	–	–
CC(C)Cc1ccccc1CNCc1ccc2[nH]cnc2c1	7.25	55.8 mL/min/kg	765 mL/min/kg	–	–	–
CNc1cc(CC2CCNCC2)ncn1	–	–	–	30.6 µg/mL (≈ 148 µM)	–	–
CN(CCN1CCCCC1)c1cncc(C(N)=O)n1	4.41	≤ 4.74 mL/min/kg	95.2 mL/min/kg	–	–	–
O=C(c1cnc(-c2ccccc2)s1)N1CCOC2(CCCC2)C1	0.58	21.4 mL/min/kg	774 mL/min/kg	39 µg/mL (≈ 119 µM)	–	–

SMILES	MDR1-MDCK efflux ratio	intrinsic clearance, human liver microsomes	intrinsic clearance, rat liver microsomes	aqueous solubility	fraction unbound, human plasma	fraction unbound, rat plasma
C[C@H](NC(=O)CCC(F)(F)F)C(=O)N[C@@H]1C(=O)N(CCO)c2ncccc2-c2ccccc21	24	≤ 4.74 mL/min/kg	10.8 mL/min/kg	–	–	–
CC1(c2nnc(-c3ccc4c(c3)OCCO4)o2)CCOCC1	0.742	13.3 mL/min/kg	247 mL/min/kg	40.8 µg/mL (≈ 135 µM)	–	–
COc1cccc(-n2c(S)nnc2COc2cccc3ccccc23)c1	1.07	–	–	0.26 µg/mL (≈ 0.715 µM)	–	–
Cc1cc(C(=O)N2CCN(C(=O)C3CCC3)CC2)c(O)cn1	29.1	≤ 4.74 mL/min/kg	≤ 10.7 mL/min/kg	–	–	–
O=C(O)c1ccc(COc2ccc(/C=C3\SC(=O)N(Cc4ccc(F)cc4)C3=O)cc2)cc1	–	–	–	0.99 µg/mL (≈ 2.14 µM)	–	–
CN(Cc1cccc(C#N)c1)Cc1cnn(C)c1	0.578	≤ 4.74 mL/min/kg	≤ 10.7 mL/min/kg	32.1 µg/mL (≈ 134 µM)	–	–
CCc1nnc(Nc2cc(C)nc(C3CN(C(=O)C(C)C)CCO3)c2)s1 (stereo not drawn)	40.4	13.7 mL/min/kg	131 mL/min/kg	–	–	–
Cn1cc(C(=O)NCCc2c[nH]c3ccccc23)c(-c2cccnc2)n1	29	36.2 mL/min/kg	415 mL/min/kg	56.2 µg/mL (≈ 163 µM)	–	–
Cc1nnc(CN(C)Cc2cnn(C)c2C)s1	1.44	≤ 4.74 mL/min/kg	20 mL/min/kg	–	–	–
CN1CCN(S(=O)(=O)Cc2ccc(Cl)c(Cl)c2)CC1	0.562	33.9 mL/min/kg	887 mL/min/kg	–	–	–
COCc1ncc(CN2CCC(Oc3cccc(C)c3)CC2)cn1	–	10.2 mL/min/kg	131 mL/min/kg	–	–	–
CN(C(=O)c1cc(N2CCNC2=O)ccc1F)C1CCC(N)CC1 (stereo not drawn)	1.02	≤ 4.74 mL/min/kg	–	–	0.674	–
CC(=O)c1ccccc1-c1cccc(C(=O)NCCCN2CCCC2)c1	133	≤ 4.74 mL/min/kg	742 mL/min/kg	–	–	–
NC(=O)c1ccc(N2CCCCC2)c(NC(=O)c2ncoc2-c2ccc3ccccc3c2)c1	0.519	–	–	0.24 µg/mL (≈ 0.545 µM)	–	–
O=C(c1ccccc1N1CCOCC1)N(Cc1ccccn1)C1CCCCC1	3.17	990 mL/min/kg	3840 mL/min/kg	–	–	–
CCNc1cc2c(nn1)CCN(C(=O)Cn1ccc3ccccc31)C2	–	≤ 4.74 mL/min/kg	93.1 mL/min/kg	–	–	–
COc1ccnc(N2CCCN(Cc3ccccc3C)CC2)n1	–	756 mL/min/kg	2350 mL/min/kg	–	–	–
Cc1cc(-c2nnc3ccc4ccccc4n23)n(C)n1	1.26	≤ 4.74 mL/min/kg	20.3 mL/min/kg	17.1 µg/mL (≈ 64.9 µM)	–	–
CCn1nccc1CNc1nnc(-c2ccc(OC)cc2)o1	1.89	6.62 mL/min/kg	76.2 mL/min/kg	27.1 µg/mL (≈ 90.6 µM)	–	–
CNc1nc(C)nc(N[C@H]2CCC[C@@H](C(=O)NCc3ccc(C#N)cc3C(F)(F)F)C2)n1	108	18.4 mL/min/kg	91.3 mL/min/kg	–	–	–
